melting point: 138.5 °C
SMILES: CCCCCCCC/C=C/CCc1cc(O)c(O)cc1O [Eriopodol C, (E)-5-(dodec-3′-enyl)benzene-1,2,4-triol]

Reference: PMC6770071, “XIAP as a Target of New Small Organic Natural Molecules Inducing Human Cancer Cell Death” (Cancers, 2019)
